Measured values published in patent US11254661B2, “Quinoline derivatives for treating infections with helminths” (Bayer Animal Health GMBH, priority 2017, dated 2022).

Key:
C. elegans Slo-1a = C. elegans Slo-1a (Caenorhabditis elegans, UniProt Q95V25)
Experimental: In Vitro Assay 1: C. elegans Slo-1a—Action at a Recombinant C. elegans Cell Line
Cells were cultured at 37° C. and 5% CO2 in MEMalpha with Gutamax I (Invitrogen, Nr.: 32571), supplemented with 10% (v/v) heat inactivated fetal bovine serum (Invitrogen, Nr.: 10500), G418 (1 mg/ml, Invitrogen, Nr.: 10131). Cells were detached using Accutase (Sigma, Nr.: A6964).
Membrane Potential Measurements
Laboratory compound testing was performed on 384-well microtiter plates (MTPs, Greiner, Nr.: 781092). 8000 cells/well were plated onto 384-well MTPs and cultured for 20 to 24 hours at 37° C. and 5% CO2. After removal of the cell culture medium, the cells were washed once with tyrode (150 mM NaCl, 0.3 mM KCl, 2 mM CaCl2, 1 mM MgCl2, 0.8 mM NaH2PO4, 5 mM Glucose, 28 mM Hepes, pH 7.4) and then loaded with the voltage sensitive dye of the Membrane Potential Assay Kit diluted in tyrode for 1 h at room temperature.
After starting the measurement of fluorescence using a FLIPR Tetra(Molecular Devices, Exc. 510-545 nm, Emm. 565-625 nm), test compounds were added followed by the addition of KCl tyrode (final assay concentration: 70 mM KCl, 2 mM CaCl2, 1 mM MgCl2, 0.8 mM NaH2PO4, 5 mM Glucose, 28 mM Hepes, pH 7.4, including the voltage sensitive dye). The measurement was completed after 7 minutes.

[1] = system: Dirofilaria immitis microfilariae; test: In Vitro Assay 2: Dirofilaria immitis microfilariae (DIROIM L1) motility; details: 72 h

Sequence of C. elegans Slo-1a (Q95V25 whole entry): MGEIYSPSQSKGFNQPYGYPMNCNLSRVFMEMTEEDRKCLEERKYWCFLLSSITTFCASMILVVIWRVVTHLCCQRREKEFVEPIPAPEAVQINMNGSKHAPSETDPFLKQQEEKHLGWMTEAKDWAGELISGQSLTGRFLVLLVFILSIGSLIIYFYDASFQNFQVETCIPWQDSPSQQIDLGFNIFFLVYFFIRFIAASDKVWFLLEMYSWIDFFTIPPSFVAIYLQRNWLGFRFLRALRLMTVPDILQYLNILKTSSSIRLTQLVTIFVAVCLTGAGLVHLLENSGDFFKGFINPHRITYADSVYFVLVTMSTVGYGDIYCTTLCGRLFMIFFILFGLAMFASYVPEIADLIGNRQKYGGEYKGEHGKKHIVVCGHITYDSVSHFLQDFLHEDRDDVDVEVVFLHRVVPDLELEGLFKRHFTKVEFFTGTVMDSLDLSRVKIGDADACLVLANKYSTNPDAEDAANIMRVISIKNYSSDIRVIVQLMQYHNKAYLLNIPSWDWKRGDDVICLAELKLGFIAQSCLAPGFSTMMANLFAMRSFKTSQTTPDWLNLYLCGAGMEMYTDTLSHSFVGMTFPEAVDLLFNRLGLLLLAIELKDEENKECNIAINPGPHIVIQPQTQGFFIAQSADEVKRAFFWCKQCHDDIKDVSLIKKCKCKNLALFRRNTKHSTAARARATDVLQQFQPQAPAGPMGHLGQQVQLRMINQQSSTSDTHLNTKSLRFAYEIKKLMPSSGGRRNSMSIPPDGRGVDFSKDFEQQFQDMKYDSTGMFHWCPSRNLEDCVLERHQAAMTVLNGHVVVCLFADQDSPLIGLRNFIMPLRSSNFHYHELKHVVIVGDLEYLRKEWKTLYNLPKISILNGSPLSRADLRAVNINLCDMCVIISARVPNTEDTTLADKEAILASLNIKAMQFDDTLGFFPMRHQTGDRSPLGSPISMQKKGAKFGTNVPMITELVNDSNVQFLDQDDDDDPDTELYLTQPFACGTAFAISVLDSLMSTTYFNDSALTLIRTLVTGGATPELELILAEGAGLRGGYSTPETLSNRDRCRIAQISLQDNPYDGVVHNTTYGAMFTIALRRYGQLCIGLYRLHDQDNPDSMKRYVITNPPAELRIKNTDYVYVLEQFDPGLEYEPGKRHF

Structure (SMILES) | EC50 (C. elegans Slo-1a) | EC50 [1]
CC(C)C#Cc1cccc2c(N(C)C)c(C(=O)N[C@H]3CCOc4ccccc43)cnc12 [Example 1, (S)—N-(Chroman-4-yl)-4-(dimethylamino)-8-(3-methylbut-1-yn-1-yl)quinoline-3-carboxamide] | 31.6 to 316 nM | < 10 µg/mL
COCC#Cc1cccc2c(N(C)C)c(C(=O)N[C@H]3CCOc4ccccc43)cnc12 [Example 2, (S)—N-(Chroman-4-yl)-4-(dimethylamino)-8-(3-methoxyprop-1-yn-1-yl)quinoline-3-carboxamide] | 316 to 5010 nM | < 10 µg/mL
CC(C)CCc1cccc2c(N(C)C)c(C(=O)N[C@H]3CCOc4ccccc43)cnc12 [Example 3, (S)—N-(Chroman-4-yl)-4-(dimethylamino)-8-isopentylquinoline-3-carboxamide] | 3.16 to 31.6 nM | < 1 µg/mL
COCCCc1cccc2c(N(C)C)c(C(=O)N[C@H]3CCOc4ccccc43)cnc12 [Example 4, (S)—N-(Chroman-4-yl)-4-(dimethylamino)-8-(3-methoxypropyl)quinoline-3-carboxamide] | 316 to 5010 nM | < 10 µg/mL
CN(C)c1c(C(=O)N[C@H]2CCOc3ccccc32)cnc2c(C3COC3)cccc12 [Example 5, (S)—N-(Chroman-4-yl)-4-(dimethylamino)-8-(oxetan-3-yl)quinoline-3-carboxamide] | 316 to 5010 nM | < 10 µg/mL
CN(C)c1c(C(=O)N[C@H]2CCOc3ccccc32)cnc2c(C3CCOCC3)cccc12 [Example 6, (S)—N-(Chroman-4-yl)-4-(dimethylamino)-8-(tetrahydro-2H-pyran-4-yl)quinoline-3-carboxamide] | 31.6 to 316 nM | < 1 µg/mL
CN(C)c1c(C(=O)N[C@H]2CCOc3ccccc32)cnc2c(C3=CCCC3)cccc12 [Example 7, (S)—N-(Chroman-4-yl)-8-(cyclopent-1-en-1-yl)-4-(dimethylamino)quinoline-3-carboxamide] | 3.16 to 31.6 nM | < 1 µg/mL
CN(C)c1c(C(=O)N[C@H]2CCOc3ccccc32)cnc2c(C3CCCC3)cccc12 [Example 8, (S)—N-(Chroman-4-yl)-8-cyclopentyl-4-(dimethylamino)quinoline-3-carboxamide] | < 3.16 nM | < 0.1 µg/mL
C=C(C)c1cccc2c(N(C)C)c(C(=O)N[C@H]3CCOc4ccccc43)cnc12 [Example 9, (S)—N-(Chroman-4-yl)-4-(dimethylamino)-8-(prop-1-en-2-yl)quinoline-3-carboxamide] | 31.6 to 316 nM | < 1 µg/mL
CC(C)c1cccc2c(N(C)C)c(C(=O)N[C@H]3CCOc4ccccc43)cnc12 [Example 10, (S)—N-(Chroman-4-yl)-4-(dimethylamino)-8-isopropylquinoline-3-carboxamide] | 31.6 to 316 nM | < 1 µg/mL
CN(C)c1c(C(=O)N[C@H]2CCOc3ccccc32)cnc2c(C3=CCCCC3)cccc12 [Example 11, (S)—N-(Chroman-4-yl)-8-(cyclohex-1-en-1-yl)-4-(dimethylamino)quinoline-3-carboxamide] | 3.16 to 31.6 nM | < 1 µg/mL
CN(C)c1c(C(=O)N[C@H]2CCOc3ccccc32)cnc2c(C3CCCCC3)cccc12 [Example 12, (S)—N-(Chroman-4-yl)-8-cyclohexyl-4-(dimethylamino)quinoline-3-carboxamide] | 3.16 to 31.6 nM | < 0.1 µg/mL
CN(C)c1c(C(=O)N[C@H]2CCOc3ccccc32)cnc2c(C3=CCOCC3)cccc12 [Example 13, (S)—N-(Chroman-4-yl)-8-(3,6-dihydro-2H-pyran-4-yl)-4-(dimethylamino)quinoline-3-carboxamide] | 31.6 to 316 nM | < 1 µg/mL
CN(C)c1c(C(=O)N[C@H]2CCOc3ccccc32)cnc2c(C3=CCCCCC3)cccc12 [Example 14, (S)—N-(Chroman-4-yl)-8-(cyclohept-1-en-1-yl)-4-(dimethylamino)quinoline-3-carboxamide] | 3.16 to 31.6 nM | < 0.1 µg/mL
CN(C)c1c(C(=O)N[C@H]2CCOc3ccccc32)cnc2c(C3=CCC(C(F)(F)F)CC3)cccc12 (stereo partly drawn) [Example 16, N—((S)-Chroman-4-yl)-4-(dimethylamino)-8-(4-(trifluoromethyl)cyclohex-1-en-1-yl)quinoline-3-carboxamide] | 3.16 to 31.6 nM | < 1 µg/mL
CN(C)c1c(C(=O)N[C@H]2CCOc3ccccc32)cnc2c(C3CCC(C(F)(F)F)CC3)cccc12 (stereo partly drawn) [Example 17, N—((S)-Chroman-4-yl)-4-(dimethylamino)-8-(4-(trifluoromethyl)cyclohexyl)quinoline-3-carboxamide] | 3.16 to 31.6 nM | < 0.1 µg/mL
CN(C)c1c(C(=O)N[C@H]2CCOc3ccccc32)cnc2c(C3CCC(C)(C)CC3)cccc12 [Example 19, (S)—N-(Chroman-4-yl)-4-(dimethylamino)-8-(4,4-dimethylcyclohexyl)quinoline-3-carboxamide] | 31.6 to 316 nM | < 1 µg/mL

Structure (SMILES) | EC50 (C. elegans Slo-1a) | EC50 [1]
CN(C)c1c(C(=O)N[C@H]2CCOc3ccccc32)cnc2c(C3CN(C(=O)OC(C)(C)C)C3)cccc12 [Example 20, tert-Butyl(S)-3-(3-(chroman-4-ylcarbamoyl)-4-(dimethylamino)quinolin-8-yl)azetidine-1-carboxylate] | 316 to 5010 nM | < 10 µg/mL
CN(C)c1c(C(=O)N[C@H]2CCOc3ccccc32)cnc2c(C3=CCNCC3)cccc12 [Example 21, (S)—N-(Chroman-4-yl)-4-(dimethylamino)-8-(1,2,3,6-tetrahydropyridin-4-yl)quinoline-3-carboxamide] | 316 to 5010 nM | < 10 µg/mL
C[C@H]1COCCN1c1cccc2c(N3CCOCC3)c(C(=O)N[C@H]3CCOc4ccccc43)cnc12 [Example 23, N-[(4S)-3,4-Dihydro-2H-chromen-4-yl]-8-[(3S)-3-methylmorpholin-4-yl]-4-(morpholin-4-yl)quinoline-3-carboxamide] | 316 to 5010 nM | < 10 µg/mL
O=C(N[C@H]1CCOc2ccccc21)c1cnc2c(N3CCOCC3)cccc2c1N1CCOCC1 [Example 24, N-[(4S)-3,4-dihydro-2H-chromen-4-yl]-4,8-di(morpholin-4-yl)quinoline-3-carboxamide] | 316 to 5010 nM | < 10 µg/mL
O=C(N[C@H]1CCOc2ccccc21)c1cnc2c(NC3CCCCC3)cccc2c1N1CCOCC1 [Example 25, 8-(cyclohexylamino)-N-[(4S)-3,4-dihydro-2H-chromen-4-yl]-4-(morpholin-4-yl)quinoline-3-carboxamide] | 3.16 to 31.6 nM | < 10 µg/mL
CC(C)(C)OC(=O)Nc1cccc2c(N3CCOCC3)c(C(=O)N[C@H]3CCOc4ccccc43)cnc12 [Example 26, tert-butyl {3-[(4S)-3,4-dihydro-2H-chromen-4-ylcarbamoyl]-4-(morpholin-4-yl)quinolin-8-yl}carbamate] | 3.16 to 31.6 nM | < 0.1 µg/mL
C[C@@H]1COCCN1c1cccc2c(N3CCOCC3)c(C(=O)N[C@H]3CCOc4ccccc43)cnc12 [Example 27, N-[(4S)-3,4-dihydro-2H-chromen-4-yl]-8-[(3R)-3-methylmorpholin-4-yl]-4-(morpholin-4-yl)quinoline-3-carboxamide] | 316 to 5010 nM | < 1 µg/mL
CC(=O)Nc1cccc2c(N3CCOCC3)c(C(=O)N[C@H]3CCOc4ccccc43)cnc12 [Example 28, 8-(acetylamino)-N-[(4S)-3,4-dihydro-2H-chromen-4-yl]-4-(morpholin-4-yl)quinoline-3-carboxamide] | 316 to 5010 nM | < 10 µg/mL
O=C(N[C@H]1CCOc2ccccc21)c1cnc2c(N3CCCCC3)cccc2c1N1CCOCC1 [Example 29, N-[(4S)-3,4-dihydro-2H-chromen-4-yl]-4-(morpholin-4-yl)-8-(piperidin-1-yl)quinoline-3-carboxamide] | 31.6 to 316 nM | < 0.1 µg/mL
CN(C)c1c(C(=O)N[C@H]2CCOc3ccccc32)cnc2c(N3CCCCC3)cccc12 [Example 30, N-[(4S)-3,4-dihydro-2H-chromen-4-yl]-4-(dimethylamino)-8-(piperidin-1-yl)quinoline-3-carboxamide] | 31.6 to 316 nM | < 1 µg/mL
C[C@@H]1CN(c2cccc3c(N4CCOCC4)c(C(=O)N[C@H]4CCOc5ccccc54)cnc23)C[C@H](C)O1 [Example 31, N-[(4S)-3,4-dihydro-2H-chromen-4-yl]-8-[(2R,6S)-2,6-dimethylmorpholin-4-yl]-4-(morpholin-4-yl)quinoline-3-carboxamide] | 31.6 to 316 nM | < 10 µg/mL
C[C@@H]1CN(c2cccc3c(N4CCOCC4)c(C(=O)N[C@H]4CCOc5ccccc54)cnc23)C[C@@H](C)O1 [Example 32, N-[(4S)-3,4-dihydro-2H-chromen-4-yl]-8-[(2R,6R)-2,6-dimethylmorpholin-4-yl]-4-(morpholin-4-yl)quinoline-3-carboxamide] | 316 to 5010 nM | < 1 µg/mL
CC(C)c1c(C(=O)N[C@H]2CCOc3ccccc32)cnc2c(N3CCCCC3)cccc12 [Example 35, N-[(4S)-3,4-dihydro-2H-chromen-4-yl]-8-(piperidin-1-yl)-4-(propan-2-yl)quinoline-3-carboxamide] | 31.6 to 316 nM | < 0.1 µg/mL
CC(C)c1c(C(=O)N[C@H]2CCOc3ccccc32)cnc2c(N3C[C@H](C)C[C@H](C)C3)cccc12 [Example 36, N-[(4S)-3,4-dihydro-2H-chromen-4-yl]-8-[(3R,5S)-3,5-dimethylpiperidin-1-yl]-4-(propan-2-yl)quinoline-3-carboxamide] | 3.16 to 31.6 nM | < 0.1 µg/mL
CN(C)c1c(C(=O)N[C@H]2CCc3ccccc32)cnc2c(N3CCC(F)(F)CC3)c(F)ccc12 [Example 39, 8-(4,4-difluoropiperidin-1-yl)-N-[(1S)-2,3-dihydro-1H-inden-1-yl]-4-(dimethylamino)-7-fluoroquinoline-3-carboxamide] | 3.16 to 31.6 nM | < 1 µg/mL
CC1CC(C)CN(c2c(F)ccc3c(N(C)C)c(C(=O)N[C@H]4CCc5ccccc54)cnc23)C1 (stereo partly drawn) [Example 41, N-[(1S)-2,3-dihydro-1H-inden-1-yl]-4-(dimethylamino)-8-(3,5-dimethylpiperidin-1-yl)-7-fluoroquinoline-3-carboxamide] | 3.16 to 31.6 nM | < 1 µg/mL
